Consider 53 compounds from patent publication US8354403B2, “Pyrrolidine derived beta 3 adrenergic receptor agonists” (Merck Sharp & Dohme Corp., priority 2009, dated 2013).

A value given as a limit tells only on which side of the number the result lay.

The first test deals with T1, human β3 adrenergic receptor (Homo sapiens, UniProt P13945).
T1 construct: expressed in transfected cells; host or cells: Chinese hamster ovary (CHO) cells, stably transfected
T1 sequence (P13945 whole entry): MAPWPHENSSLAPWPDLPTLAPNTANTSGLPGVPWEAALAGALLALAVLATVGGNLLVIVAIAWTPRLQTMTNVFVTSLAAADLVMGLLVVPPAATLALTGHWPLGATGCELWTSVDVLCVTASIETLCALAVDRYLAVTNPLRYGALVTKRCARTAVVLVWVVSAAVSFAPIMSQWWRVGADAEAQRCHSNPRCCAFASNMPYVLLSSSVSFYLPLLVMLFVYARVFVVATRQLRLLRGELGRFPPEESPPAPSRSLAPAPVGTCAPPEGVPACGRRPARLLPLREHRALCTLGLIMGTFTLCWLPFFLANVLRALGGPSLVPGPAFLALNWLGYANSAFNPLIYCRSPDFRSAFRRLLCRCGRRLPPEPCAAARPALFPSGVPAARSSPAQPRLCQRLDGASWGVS
Description: Beta-3 agonist in vitro functional assay: cAMP production (LANCE TR-FRET) in CHO cells stably transfected with the cloned β3 receptor. The class given is cell-based. The following applies: Table 4; cAMP, CHO cells; read-out: Human β3 agonist functional activity. The method, boiled down:
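CHO cells stably expressing the cloned receptor, in HEPES-buffered HBSS with BSA and 0.6 mM IBMX, 6,000 cells/well, exposed to compound for 30 min at RT. cAMP read by LANCE TR-FRET against a cAMP standard curve. Isoproterenol defines maximal stimulation.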
On the technique in general: Changes in cAMP serve as a functional read-out for many G protein-coupled receptors.
For `O=C(c1ccc(C[C@@H]2CC[C@H]([C@H](O)c3ccccc3)N2)cc1)N1CC2CC(n3cnnn3)CC2C1` (some centres unmarked) [Example 23], the EC50 lay within 10 to 99.9 nM.
Still for that read-out and setting: in the case of `O=C(OCc1ccccc1)C1CCCN(C(=O)c2ccc(C[C@@H]3CC[C@H]([C@H](O)c4ccccc4)N3)cc2)C1` (some centres unmarked) [Example 32] it was 10 to 99.9 nM.
For the compound `O=C(c1ccc(C[C@@H]2CC[C@H]([C@H](O)c3ccccc3)N2)cc1)N1CCCC2(CCOC2=O)C1` (some centres unmarked) [Example 40], the EC50 was 10 to 99.9 nM.
Take `O=C(c1ccc(C[C@@H]2CC[C@H]([C@H](O)c3ccccc3)N2)cc1)N1CCc2oncc2C1` [Example 55]: the EC50 was in the range of 100 to 999 nM.

The same test, now with this note: Table 5; cAMP, CHO cells; read-out: Human β3 agonist functional activity.
For `O=C(c1ccc(C[C@@H]2CC[C@H]([C@H](O)c3ccccc3)N2)cc1)N1CCC(c2nn[nH]n2)CC1` [Example 105], the EC50 lay within 10 to 99.9 nM.
On to `Cn1cnnc1C1CCN(C(=O)c2ccc(C[C@@H]3CC[C@H]([C@H](O)c4ccccc4)N3)cc2)CC1` [Example 98], for which the EC50 is 100 to 999 nM.
Turning to `O=C(c1ccc(C[C@@H]2CC[C@H]([C@H](O)c3ccccc3)N2)cc1)N1CCC(Oc2cncc(Cl)n2)CC1` [Example 155], the EC50 lay in the range of 100 to 999 nM.
The same measure, in the same setting: as for `O=C(c1ccc(C[C@@H]2CC[C@H]([C@H](O)c3ccccc3)N2)cc1)N1CCC(c2nnnn2C2CC2)CC1` [Example 110], the figure is under 1 nM; as for `O=C(c1ccc(C[C@@H]2CC[C@H]([C@H](O)c3cccnc3)N2)cc1)N1CCC(S(=O)(=O)c2ccccc2F)CC1` [Example 133], 10 to 99.9 nM.
For the compound `O=C(c1ccc(C[C@@H]2CC[C@H]([C@H](O)c3cccnc3)N2)cc1)N1CCC(n2nccn2)CC1` [Example 94], the EC50 lay in the range of 100 to 999 nM.
As for `O=C(c1ccc(C[C@@H]2CC[C@H]([C@H](O)c3ccccc3)N2)cc1)N1CCC(c2cccc(F)n2)CC1` [Example 112], the EC50 fell in the range of 10 to 99.9 nM.
As to `O=C(c1ccc(C[C@@H]2CC[C@H]([C@H](O)c3ccccc3)N2)cc1)N1CCC(S(=O)(=O)CC(F)(F)F)CC1` [Example 125], the EC50 was 10 to 99.9 nM.
For `O=C(c1ccc(C[C@@H]2CC[C@H]([C@H](O)c3ccccc3)N2)cc1)N1CCC(n2cc(-c3ccccc3)nn2)CC1` [Example 80], the EC50 lay in the range of 100 to 999 nM.
For the compound `O=C(c1ccc(C[C@@H]2CC[C@H]([C@H](O)c3ccccc3)N2)cc1)N1CCC(c2ncccn2)CC1` [Example 114], the EC50 was in the range of 100 to 999 nM.
As for `O=C(c1ncc(-c2cccc(F)n2)o1)C1CCN(C(=O)c2ccc(C[C@@H]3CC[C@H]([C@H](O)c4ccccc4)N3)cc2)CC1` [Example 121], the EC50 fell in the range of 1 to 9.9 nM.

Staying with this test, now noted: Table 7; cAMP, CHO cells; ranges as given for Tables 6 and 7; read-out: Human β3 agonist functional activity.
For the compound `N#CC1(c2ncccn2)C2CN(C(=O)c3ccc(C[C@@H]4CC[C@H]([C@H](O)c5ccccc5)N4)cc3)CC21` (some centres unmarked) [Example 237], the EC50 is 10 to 99.9 nM.
For `O=C(c1ccc(CC2CCC(C(O)c3ccccc3)N2)cc1)N1CC2C(C1)C2Cn1nccn1` (centres unmarked) [Example 232], the EC50 fell in the range of 100 to 999 nM.

Staying with this test, now noted: Table 8; Beta-3 agonist in vitro functional assay; read-out: Human β3 agonist functional activity.
`O=C1OC2(CCN(C(=O)c3ccc(C[C@@H]4CC[C@H]([C@H](O)c5ccccc5)N4)cc3)CC2)Cc2ccccc21` [Example 333]: the EC50 was 1 to 9.9 nM.
`O=C(c1ccc(C[C@@H]2CC[C@H]([C@H](O)c3ccccc3)N2)cc1)N1CCC2(CC1)CCN(c1ccccc1)C2=O` [Example 254]: the EC50 is 100 to 999 nM.
Take `O=C(c1ccc(C[C@@H]2CC[C@H]([C@H](O)c3ccccc3)N2)cc1)N1CCC2(CCCC2n2cccn2)CC1` (some centres unmarked) [Example 282]: the EC50 fell in the range of 100 to 999 nM.
As for `CC1OC(=O)C2(CCN(C(=O)c3ccc(C[C@@H]4CC[C@H]([C@H](O)c5ccccc5)N4)cc3)CC2)C1C` (some centres unmarked) [Example 297], the EC50 was 1 to 9.9 nM.
Regarding `O=C(c1ccc(C[C@@H]2CC[C@H]([C@H](O)c3ccccc3)N2)cc1)N1CCC2(CC1)Nc1ccccc1S(=O)(=O)N2` [Example 334], the EC50 is 1 to 9.9 nM.
The same measure, in the same setting: in the case of `CC1(C)CC2(CCN(C(=O)c3ccc(C[C@@H]4CC[C@H]([C@H](O)c5ccccc5)N4)cc3)CC2)OC1=O` [Example 279] it was 10 to 99.9 nM.
`CN1CCC2(CCN(C(=O)c3ccc(C[C@@H]4CC[C@H]([C@H](O)c5ccccc5)N4)cc3)CC2)C1=O` [Example 251]: the EC50 was in the range of 100 to 999 nM.
The same measure, in the same setting: as for `O=C(c1ccc(C[C@@H]2CC[C@H]([C@H](O)c3ccccc3)N2)cc1)N1CCC2(CC1)C(=O)NCC2c1ccc(C(F)(F)F)cc1` (some centres unmarked) [Example 263], the figure is under 1 nM; as for `O=C(c1ccc(C[C@@H]2CC[C@H]([C@H](O)c3cccnc3)N2)cc1)N1CCC2(CC1)SCc1ccccc12` [Example 301], 100 to 999 nM.

The same test, now with this note: Table 9; Beta-3 agonist in vitro functional assay; read-out: Human β3 agonist functional activity.
With `Cc1nonc1N1CCN(C(=O)c2ccc(C[C@@H]3CC[C@H]([C@H](O)c4ccccc4)N3)cc2)CC1` [Example 380], the EC50 lay within 10 to 99.9 nM.
Consider `Cc1cc(C)nc(N2CCN(C(=O)c3ccc(C[C@@H]4CC[C@H]([C@H](O)c5ccccc5)N4)cc3)CC2)n1` [Example 372], for which the EC50 is 100 to 999 nM.
As to `O=C(O)c1ccccc1N1CCN(C(=O)c2ccc(C[C@@H]3CC[C@H]([C@H](O)c4ccccc4)N3)cc2)CC1` [Example 350], the EC50 lay in the range of 100 to 999 nM.
With `CC(c1nnco1)N1CCN(C(=O)c2ccc(C[C@@H]3CC[C@H]([C@H](O)c4ccccc4)N3)cc2)CC1` (some centres unmarked) [Example 421], the EC50 lay in the range of 10 to 99.9 nM.

The test is the same for the next values; noted with them: Table 10; Beta-3 agonist in vitro functional assay; read-out: Human β3 agonist functional activity.
Consider `CCN(CC)C(=O)C(C)N1CCN(C(=O)c2ccc(C[C@@H]3CC[C@H]([C@H](O)c4ccccc4)N3)cc2)CC1` (some centres unmarked) [Example 516], for which the EC50 lay within 100 to 999 nM.
In the case of `CCN(C(=O)C(C)N1CCN(C(=O)c2ccc(C[C@@H]3CC[C@H]([C@H](O)c4ccccc4)N3)cc2)CC1)C(C)C` (some centres unmarked) [Example 515], the EC50 lay in the range of 10 to 99.9 nM.
Still for that read-out and setting: as for `CC(C)NC(=O)C(C)N1CCN(C(=O)c2ccc(C[C@@H]3CC[C@H]([C@H](O)c4ccccc4)N3)cc2)CC1` (some centres unmarked) [Example 437], the figure is 100 to 999 nM; as for `CC(C(=O)N(C)CCC#N)N1CCN(C(=O)c2ccc(C[C@@H]3CC[C@H]([C@H](O)c4ccccc4)N3)cc2)CC1` (some centres unmarked) [Example 521], 10 to 99.9 nM; as for `CC(C(=O)N1CCc2nc(C3CC3)sc2C1)N1CCN(C(=O)c2ccc(C[C@@H]3CC[C@H]([C@H](O)c4ccccc4)N3)cc2)CC1` (some centres unmarked) [Example 505], under 1 nM.
On to `CC(C(=O)N1Cc2cncnc2C1)N1CCN(C(=O)c2ccc(C[C@@H]3CC[C@H]([C@H](O)c4ccccc4)N3)cc2)CC1` (some centres unmarked) [Example 483], for which the EC50 is 100 to 999 nM.
`CC(C(=O)NCC1(O)CC1)N1CCN(C(=O)c2ccc(C[C@@H]3CC[C@H]([C@H](O)c4ccccc4)N3)cc2)CC1` (some centres unmarked) [Example 449]: the EC50 lay in the range of 10 to 99.9 nM.
On to `CC(C(=O)N1CCCC(C(F)(F)F)C1)N1CCN(C(=O)c2ccc(C[C@@H]3CC[C@H]([C@H](O)c4ccccc4)N3)cc2)CC1` (some centres unmarked) [Example 487], for which the EC50 was 1 to 9.9 nM.
Same read-out and setting: as for `CC(C(=O)N1CCSC1)N1CCN(C(=O)c2ccc(C[C@@H]3CC[C@H]([C@H](O)c4ccccc4)N3)cc2)CC1` (some centres unmarked) [Example 481], the figure is 100 to 999 nM; as for `CC(C(=O)N1[C@H]2CC[C@@H]1CC2)N1CCN(C(=O)c2ccc(C[C@@H]3CC[C@H]([C@H](O)c4ccccc4)N3)cc2)CC1` (some centres unmarked) [Example 501], 100 to 999 nM.
Still for that read-out and setting: in the case of `CC(C(=O)N(C)CCO)N1CCN(C(=O)c2ccc(C[C@@H]3CC[C@H]([C@H](O)c4ccccc4)N3)cc2)CC1` (some centres unmarked) [Example 519] it was 100 to 999 nM.

The same test, now with this note: Table 11; cAMP, CHO cells; read-out: Human β3 agonist functional activity.
In the case of `C[C@@H]1CN(C(=O)c2ccc(C[C@@H]3CC[C@H]([C@H](O)c4ccccc4)N3)cc2)C[C@H](C)N1Cc1ccccn1` [Example 533], the EC50 lay within 100 to 999 nM.
As for `C[C@H](c1ccccn1)N1CC2CCC1CN2C(=O)c1ccc(C[C@@H]2CC[C@H]([C@H](O)c3ccccc3)N2)cc1` (some centres unmarked) [Example 541], the EC50 is 100 to 999 nM.
Consider `O=C(c1ccc(C[C@@H]2CC[C@H]([C@H](O)c3ccccc3)N2)cc1)N1C2CCC1CN(c1nccs1)C2` [Example 543], for which the EC50 fell in the range of 10 to 99.9 nM.

Still in this test, the particulars now being: Table 12; human β3 functional activity given as ranges; read-out: Human β3 agonist functional activity.
With `CC(c1cocn1)N1CCN(C(=O)c2ccc(CC3CCC(C(O)c4ccccc4)N3)cc2)CC1` (single isomer, unassigned) [Example 585], the EC50 was 10 to 99.9 nM.
In the case of `CCC(c1ccccn1)N1CCN(C(=O)c2ccc(CC3CCC(C(O)c4ccccc4)N3)cc2)CC1` (single isomer, unassigned) [Example 587], the EC50 lay in the range of 10 to 99.9 nM.
Turning to `CC(c1nccs1)N1CCN(C(=O)c2ccc(CC3CCC(C(O)c4ccccc4)N3)cc2)CC1` (single isomer, unassigned) [Example 582], the EC50 fell in the range of 10 to 99.9 nM.
For `CC(c1ncccn1)N1CCN(C(=O)c2ccc(CC3CCC(C(O)c4ccccc4)N3)cc2)CC1` (single isomer, unassigned) [Example 595], the EC50 fell in the range of 10 to 99.9 nM.
For the compound `CCC1CC2(CCN(C(=O)c3ccc(CC4CCC(C(O)c5ccccc5)N4)cc3)CC2)C(=O)O1` (single isomer, unassigned) [Example 563], the EC50 is 1 to 9.9 nM.
Regarding `CC(c1ncccc1Cl)N1CCN(C(=O)c2ccc(CC3CCC(C(O)c4ccccc4)N3)cc2)CC1` (single isomer, unassigned) [Example 593], the EC50 is 1 to 9.9 nM.
Consider `CC(c1ncco1)N1CCN(C(=O)c2ccc(CC3CCC(C(O)c4ccccc4)N3)cc2)CC1` (single isomer, unassigned) [Example 584], for which the EC50 was in the range of 10 to 99.9 nM.

Staying with this test, now noted: given as a range; cAMP, CHO cells; read-out: human β3 functional activity.
On to `O=C(c1ccc(C[C@@H]2CC[C@H]([C@H](O)c3ccccc3)N2)cc1)N1CCC(n2cccn2)CC1` [Example 64, (R)-phenyl[(2R,5S)-5-(4-{[4-(1H-pyrazol-1-yl)-piperidin-1-yl]carbonyl}benzyl)pyrrolidine-2-yl]methanol], for which the EC50 fell in the range of 10 to 99.9 nM.
As to `O=C(c1ccc(C[C@@H]2CC[C@H]([C@H](O)c3cccnc3)N2)cc1)N1CCC(n2cccn2)CC1` [Example 65, (R)-[(2R,5S)-5-(4-{[4-(1H-pyrazol-1-yl)-piperidin-1-yl]carbonyl}benzyl)pyrrolidine-2-yl](pyridin-3-yl)methanol], the EC50 lay within 100 to 999 nM.
